Experimental data taken from US11773127B2, “Compounds and methods for treating bacterial infections” (Washington University, priority 2017, dated 2023).
Read-outs that look alike come from different tables or passages of the source.

How the values were obtained:
FmlHLD [1] = target: T1, FmlHLD (Escherichia coli, UniProt P77588); experiment: biochemical; assay type: binding, E. coli; conditions: for inhibition of FmlHLD binding to ds-BSM, in words: soluble compound at 1 mM; for PI10 (percent inhibition): galactoside at 10 μM, 10 µM; for PI100 (percent inhibition): galactoside at 100 μM, 100 µM; for inhibitory potency against FmlH, in words: ELISA-based competition assay
T1 construct: 6xHis (C); made in house; host or cells: E. coli C600, periplasm, pTRC99a
T1 sequence (P77588 25-182): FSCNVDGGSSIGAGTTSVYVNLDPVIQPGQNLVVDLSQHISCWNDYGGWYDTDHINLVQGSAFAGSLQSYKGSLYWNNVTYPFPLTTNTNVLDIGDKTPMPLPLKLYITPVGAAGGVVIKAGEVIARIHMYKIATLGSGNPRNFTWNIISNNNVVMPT
Procedure, shortened: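 Sialidase-treated bovine submaxillary mucin (ds-BSM) coated wells, BSA-blocked, then biotinylated FmlH^LD (20 μg/mL) with or without compound for 1 h at room temperature. Bound lectin detected by streptavidin-HRP/TMB, A450.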

FmlHLD [2] = target: T1, FmlHLD; experiment: biochemical; assay type: binding, E. coli
From the text: Bio-layer interferometry (BLI) was used to quantitate the binding affinity of select galactosides to FmlH.
Thereafter, pins were dipped in PBS for 120 s and transferred to protein samples (varying concentration of FmlHLD or fixed concentration of FmlHLD with varying concentration of galactoside compounds) for association for 300-600 s.

[3] = read-out: % Inhibition at [μM] [100], compound at 100 μM, inhibition of FmlHLD binding to ds-BSM
[4] = read-out: PI100 (percent inhibition), galactoside at 100 μM, mean with standard error of the mean
[5] = read-out: % Inhibition at [μM] [1], compound at 1 μM, inhibition of FmlHLD binding to ds-BSM
[6] = read-out: % Inhibition at [μM] [10], compound at 10 μM, inhibition of FmlHLD binding to ds-BSM
[7] = mean with standard error of the mean
[8] = read-out: PI1 (percent inhibition), galactoside at 1 μM, mean with standard error of the mean
[9] = read-out: PI10 (percent inhibition), galactoside at 10 μM, mean with standard error of the mean
[10] = Kd (μM), inhibitory constants, fixed FmlHLD, varying galactoside in solution, immobilized ser-TF
[11] = IC50 (μM), Table 5, Gal and GalNAc inhibition of FmlH
[12] = read-out: % Inhibition at [μM] [0.1], compound at 0.1 μM (100 nM), inhibition of FmlHLD binding to ds-BSM
[13] = read-out: PI (0.1) (average percent inhibition), compound at 100 nM, Table 4
[14] = read-out: PI(1) (average percent inhibition), compound at 1 μM, Table 4
[15] = IC50, inhibition of FmlHLD binding to ds-BSM

O=c1c(O[C@@H]2O[C@H](CO)[C@H](O)[C@H](O)[C@H]2O)c(-c2ccc(O)c(O)c2)oc2cc(O)cc(O)c12 [QG, reference compound]
inhibition at 100 µM (FmlHLD [1]; [3]): 14.4% | Kd (FmlHLD [2]; Kd): 391 µM

CC(=O)N[C@@H]1[C@@H](O[C@@H]2O[C@H](CO)[C@H](O)[C@H](O)[C@H]2O)[C@@H](O)[C@@H](CO)O[C@@H]1O [TF, Gal-β1-3-GalNAc-α, reference compound]
inhibition at 100 µM (FmlHLD [1]; [3]): 15.5% | inhibition at 100 µM (FmlHLD [1]; [4]): 15.5 ± 6.7% | inhibition of FmlHLD binding to ds-BSM, in words (FmlHLD [1]): capable of inhibiting FmlHLD | Kd (FmlHLD [2]; Kd): 248 µM

OC[C@H]1O[C@@H](Oc2cccc3cccnc23)[C@H](O)[C@@H](O)[C@H]1O [Compound 8HQG, reference compound]
inhibition at 1 µM (FmlHLD [1]; [5]): 19.2% | inhibition at 10 µM (FmlHLD [1]; [6]): 48.1% | inhibition at 100 µM (FmlHLD [1]; [3]): 95.1% | Kd (FmlHLD [2]; Kd): 7.1 µM

O=C(O)c1cccc(-c2ccccc2O[C@@H]2O[C@H](CO)[C@H](O)[C@H](O)[C@H]2O)c1 [Compound 200b]
inhibition at 1 µM (FmlHLD [1]; [5]): 12.3% | inhibition at 10 µM (FmlHLD [1]; [6]): 75.1% | inhibition at 100 µM (FmlHLD [1]; [3]): 99% | Kd (FmlHLD [2]; Kd): 2.1 µM

O=C(O)c1cccc(-c2ccccc2O[C@@H]2O[C@H](CO)[C@H](O)[C@H](O)[C@H]2O)c1 [Compound 29β, 2′-(α/β-D-galactopyranosyloxy)-[1,1′-Biphenyl]-3-carboxylic acid]
PI10 (percent inhibition) (FmlHLD [1]; [7]): 75.1 ± 1.0% | inhibition at 1 µM (FmlHLD [1]; [8]): 22.9 ± 5.1% | inhibition at 10 µM (FmlHLD [1]; [9]): 75% | inhibition at 100 µM (FmlHLD [1]; [4]): 99% | enhancement in binding affinity relative to Gal (FmlHLD [2]; BLI Kd ratio): ~330 fold

O=[N+]([O-])c1ccccc1O[C@@H]1O[C@H](CO)[C@H](O)[C@H](O)[C@H]1O [4β (ONPG), reference compound]
Kd (FmlHLD [2]; [10]): 10.6 ± 4.6 µM

CC(=O)N[C@H]1[C@H](Oc2ccccc2-c2cccc(C(=O)O)c2)O[C@H](CO)[C@H](O)[C@@H]1O [Compound 200b-GalNAc]
inhibition at 1 µM (FmlHLD [1]; [5]): 35.1% | inhibition at 10 µM (FmlHLD [1]; [6]): 93% | inhibition at 100 µM (FmlHLD [1]; [3]): 99.5% | Kd (FmlHLD [2]; Kd): 0.089 µM

CC(=O)N[C@H]1[C@H](Oc2ccccc2[N+](=O)[O-])O[C@H](CO)[C@H](O)[C@@H]1O [Compound 4β-NAc]
PI10 (percent inhibition) (FmlHLD [1]; [7]): 87.2 ± 1.7% | inhibition at 1 µM (FmlHLD [1]; [8]): 28.6 ± 4.5% | inhibition at 10 µM (FmlHLD [1]; [9]): 87% | inhibition at 100 µM (FmlHLD [1]; [4]): 99.4 ± 1.3% | Kd (FmlHLD [2]; [10]): 2.3 µM

COc1ccccc1O[C@@H]1O[C@H](CO)[C@H](O)[C@H](O)[C@H]1O [Compound 149e]
inhibition at 1 µM (FmlHLD [1]; [5]): 9.99% | inhibition at 10 µM (FmlHLD [1]; [6]): 55.7% | inhibition at 100 µM (FmlHLD [1]; [3]): 97.2% | Kd (FmlHLD [2]; Kd): 6.5 µM

CC(=O)N[C@@H]1[C@@H](O)[C@@H](O)[C@@H](CO)O[C@H]1O (stereo in doubt) [GalNAc, N-acetylgalactosamine, reference compound]
inhibition at 100 µM (FmlHLD [1]; [3]): 28.4% | inhibition at 100 µM (FmlHLD [1]; [4]): 28.5 ± 5.2% | inhibition of FmlHLD binding to ds-BSM, in words (FmlHLD [1]): capable of inhibiting FmlHLD | Kd (FmlHLD [2]; [10]): 189 ± 22.9 µM

COc1ccccc1O[C@@H]1O[C@H](CO)[C@H](O)[C@H](O)[C@H]1O [Compound 5β, 2-methoxyphenyl β-D-galactopyranoside]
PI100 (percent inhibition) (FmlHLD [1]; [7]): 97.2 ± 0.4% | inhibition at 1 µM (FmlHLD [1]; [8]): 10 ± 4.3% | inhibition at 10 µM (FmlHLD [1]; [9]): 55.7 ± 1.6% | inhibition at 100 µM (FmlHLD [1]; [4]): 97% | Kd (FmlHLD [2]; [10]): 6.5 ± 1.4 µM

OC[C@H]1O[C@@H](Oc2cccc3cccnc23)[C@H](O)[C@@H](O)[C@H]1O [Compound 20β]
PI100 (percent inhibition) (FmlHLD [1]; [7]): 95.1 ± 1.1% | inhibition at 1 µM (FmlHLD [1]; [8]): 19.2 ± 2.8% | inhibition at 10 µM (FmlHLD [1]; [9]): 48.1 ± 2% | inhibition at 100 µM (FmlHLD [1]; [4]): 95% | Kd (FmlHLD [2]; [10]): 7.1 ± 2.3 µM

OC[C@H]1O[C@@H](Oc2cc3c(O)cc(O)cc3[o+]c2-c2ccc(O)c(O)c2)[C@H](O)[C@@H](O)[C@H]1O [CG, reference compound]
inhibition at 100 µM (FmlHLD [1]; [3]): 28.8% | Kd (FmlHLD [2]; Kd): 212 µM

CC(=O)N[C@@H]1[C@@H](O[C@@H]2O[C@H](CO)[C@H](O)[C@H](O)[C@H]2O)[C@H](O)[C@@H](CO)O[C@@H]1O [Gal-β1-GalNAc, reference compound]
Kd (FmlHLD [2]; [10]): 248 ± 20.3 µM

O=C(O)c1cccc(-c2ccccc2O[C@H]2O[C@H](CO)[C@H](O)[C@H](O)[C@H]2O)c1 [Compound 29α, 2′-(α/β-D-galactopyranosyloxy)-[1,1′-Biphenyl]-3-carboxylic acid]
inhibition at 100 µM (FmlHLD [1]; [4]): 26.2 ± 5.9%

CC(=O)N[C@H]1[C@H](Oc2ccccc2-c2cccc(OS(C)(=O)=O)c2)O[C@H](CO)[C@H](O)[C@@H]1O [AM2078, 2′-(((2S,3R,4R,5R,6R)-3-acetamido-4,5-dihydroxy-6-(hydroxymethyl)tetrahydro-2H-pyran-2-yl)oxy)-[1,1′-biphenyl]-3-yl methanesulfonate]
inhibitory potency against FmlH, in words (FmlHLD [1]): equal or slightly reduced potency | IC50 (FmlHLD [1]; [11]): 0.89 µM | inhibition at 0.1 µM (FmlHLD [1]; [12]): 2% | inhibition at 1 µM (FmlHLD [1]; [5]): 32.5% | inhibition at 0.1 µM (FmlHLD [1]; [13]): 2% | inhibition at 1 µM (FmlHLD [1]; [14]): 32.5%

CC(=O)N[C@H]1[C@H](Oc2ccccc2-c2cccc(NS(=O)(=O)C(F)(F)F)c2)O[C@H](CO)[C@H](O)[C@@H]1O [AM2112]
IC50 (FmlHLD [1]; [15]): 2.43 µM

CC(=O)N[C@H]1[C@H](Oc2ccc3ccccc3c2-c2cccc(NS(C)(=O)=O)c2)O[C@H](CO)[C@H](O)[C@@H]1O [AM2144]
IC50 (FmlHLD [1]; [15]): 0.18 µM

CC(=O)N[C@H]1[C@H](Oc2ccccc2-c2cccc([N+](=O)[O-])c2)O[C@H](CO)[C@H](O)[C@@H]1O [AM2030, N-((2S,3R,4R,5R,6R)-4,5-dihydroxy-6-(hydroxymethyl)-2-((3′-nitro-[1,1′-biphenyl]-2-yl)oxy)tetrahydro-2H-pyran-3-yl)acetamide]
inhibitory potency against FmlH, in words (FmlHLD [1]): equal or slightly reduced potency | IC50 (FmlHLD [1]; [11]): 2.66 µM | inhibition at 1 µM (FmlHLD [1]; [5]): 9.25% | inhibition at 1 µM (FmlHLD [1]; [14]): 9.25%

CC1=CC(=O)Cc2c1cc(F)c(O[C@@H]1O[C@H](CO)[C@H](O)[C@H](O)[C@H]1O)c2F [DiF-MUG, reference compound]
inhibition at 10 µM (FmlHLD [1]; [6]): 0.85% | inhibition at 100 µM (FmlHLD [1]; [3]): 49.7%

CC(=O)N[C@H]1[C@H](Oc2ccccc2-c2cccc(S(C)(=O)=O)c2)O[C@H](CO)[C@H](O)[C@@H]1O [AM2059, N-((2S,3R,4R,5R,6R)-4,5-dihydroxy-6-(hydroxymethyl)-2-((3′-(methylsulfonyl)-[1,1′-biphenyl]-2-yl)oxy)tetrahydro-2H-pyran-3-yl)acetamide]
inhibitory potency against FmlH, in words (FmlHLD [1]): equal or slightly reduced potency | IC50 (FmlHLD [1]; [11]): 0.7 µM | inhibition at 0.1 µM (FmlHLD [1]; [12]): 0.1% | inhibition at 1 µM (FmlHLD [1]; [5]): 23.3% | inhibition at 0.1 µM (FmlHLD [1]; [13]): 0.1% | inhibition at 1 µM (FmlHLD [1]; [14]): 23.3%

CC(=O)N[C@H]1[C@H](Oc2ccccc2-c2cccc(C(N)=O)c2)O[C@H](CO)[C@H](O)[C@@H]1O [AM2033, 2′-(((2S,3R,4R,5R,6R)-3-acetamido-4,5-dihydroxy-6-(hydroxymethyl)tetrahydro-2H-pyran-2-yl)oxy)-[1,1′-biphenyl]-3-carboxamide]
inhibitory potency against FmlH, in words (FmlHLD [1]): equal or slightly reduced potency | IC50 (FmlHLD [1]; [11]): 1.65 µM | inhibition at 1 µM (FmlHLD [1]; [5]): 3.52% | inhibition at 1 µM (FmlHLD [1]; [14]): 3.52%

OC[C@H]1O[C@H](Oc2ccccc2-c2ccccc2)[C@H](O)[C@@H](O)[C@H]1O [Compound 28α, [1,1′-biphenyl]-2-yl α/β-D-galactopyranoside]
inhibition at 100 µM (FmlHLD [1]; [4]): 19.2 ± 3%

OC[C@H]1O[C@H](Oc2cccc3ccccc23)[C@H](O)[C@@H](O)[C@H]1O [Compound 18α, 1-naphthalenyl α/β-D-galactopyranoside]
inhibition at 100 µM (FmlHLD [1]; [4]): 28.1 ± 3.4%

Cc1cccc(O[C@@H]2O[C@H](CO)[C@H](O)[C@H](O)[C@H]2NC(=O)C(F)(F)F)c1-c1cccc(NS(C)(=O)=O)c1 [AM2129]
IC50 (FmlHLD [1]; [15]): 0.105 µM

OC[C@H]1O[C@@H](Oc2ccc3ccccc3c2)[C@H](O)[C@@H](O)[C@H]1O [2-napthyl Gal, reference compound]
inhibition at 10 µM (FmlHLD [1]; [6]): 14.6% | inhibition at 100 µM (FmlHLD [1]; [3]): 78.8%
